Assay: excess molar enthalpy (molar enthalpy of mixing); xn = mol fraction of the nth substance listed
Conditions: Fluid (supercritical or subcritical phases)

C=C(C)C1CC=C(C)CC1 (stereo not given) [1-methyl-4-(1-methylethenyl)cyclohexene] + O=C=O
excess molar enthalpy [kcal/mol]
Conditions	308.15 K	313.15 K	323.15 K
7640 kPa, x2 = 0.105	–	–	-0.125
7640 kPa, x2 = 0.129	-0.105	–	-0.151
7640 kPa, x2 = 0.152	–	–	-0.188
7640 kPa, x2 = 0.175	–	–	-0.21
7640 kPa, x2 = 0.196	-0.174	–	-0.241
7640 kPa, x2 = 0.218	–	-0.233	–
7640 kPa, x2 = 0.238	-0.211	-0.258	-0.31
7640 kPa, x2 = 0.277	-0.245	-0.287	-0.361
7640 kPa, x2 = 0.314	-0.271	–	–
7640 kPa, x2 = 0.349	–	-0.379	–
7640 kPa, x2 = 0.382	-0.329	–	-0.527
7640 kPa, x2 = 0.413	-0.374	-0.476	-0.555
7640 kPa, x2 = 0.442	-0.391	–	-0.594
7640 kPa, x2 = 0.47	–	-0.553	-0.644
7640 kPa, x2 = 0.492	–	-0.577	–
7640 kPa, x2 = 0.497	-0.435	–	–
7640 kPa, x2 = 0.522	-0.466	–	-0.725
7640 kPa, x2 = 0.546	–	-0.668	–
7640 kPa, x2 = 0.569	–	-0.697	-0.779
7640 kPa, x2 = 0.591	-0.533	–	-0.799
7640 kPa, x2 = 0.596	–	-0.755	–
7640 kPa, x2 = 0.613	–	–	-0.831
7640 kPa, x2 = 0.633	–	–	-0.868
7640 kPa, x2 = 0.652	-0.58	-0.832	-0.87
7640 kPa, x2 = 0.671	–	–	-0.817
7640 kPa, x2 = 0.697	-0.633	–	-0.755
7640 kPa, x2 = 0.722	–	–	-0.694
7640 kPa, x2 = 0.738	–	-0.957	-0.652
7640 kPa, x2 = 0.753	–	–	-0.613
7640 kPa, x2 = 0.775	–	-1.01	-0.559
7640 kPa, x2 = 0.808	-0.749	-1.03	-0.472
7640 kPa, x2 = 0.839	–	–	-0.394
7640 kPa, x2 = 0.845	–	-1.07	–
7640 kPa, x2 = 0.868	–	-0.985	-0.326
7640 kPa, x2 = 0.878	-0.814	–	–
7640 kPa, x2 = 0.894	–	–	-0.257
7640 kPa, x2 = 0.918	–	-0.617	-0.191
7640 kPa, x2 = 0.962	–	–	-0.0853
7640 kPa, x2 = 0.97	-0.848	–	–
7640 kPa, x2 = 0.972	-0.842	–	–
7640 kPa, x2 = 0.985	–	-0.153	–
10000 kPa, x2 = 0.058	–	-0.00359	0.00287
10000 kPa, x2 = 0.111	0.0136	-0.00526	–
10000 kPa, x2 = 0.136	0.0134	-0.00741	–
10000 kPa, x2 = 0.16	–	–	-0.0208
10000 kPa, x2 = 0.207	0.0184	-0.0117	-0.0535
10000 kPa, x2 = 0.25	0.0182	-0.0151	-0.0853
10000 kPa, x2 = 0.29	–	-0.0182	-0.117
10000 kPa, x2 = 0.328	0.0194	–	–
10000 kPa, x2 = 0.358	–	–	-0.18
10000 kPa, x2 = 0.363	–	-0.0294	–
10000 kPa, x2 = 0.38	–	-0.0392	–
10000 kPa, x2 = 0.397	0.0146	–	–
10000 kPa, x2 = 0.428	0.011	-0.0416	-0.248
10000 kPa, x2 = 0.486	0.0043	–	-0.301
10000 kPa, x2 = 0.513	–	-0.065	–
10000 kPa, x2 = 0.526	–	-0.0743	–
10000 kPa, x2 = 0.538	–	–	-0.357
10000 kPa, x2 = 0.548	-0.00741	–	–
10000 kPa, x2 = 0.562	-0.00908	-0.082	-0.383
10000 kPa, x2 = 0.585	–	–	-0.402
10000 kPa, x2 = 0.627	–	-0.105	-0.437
10000 kPa, x2 = 0.666	-0.0354	-0.118	-0.473
10000 kPa, x2 = 0.71	-0.0492	-0.14	–
10000 kPa, x2 = 0.75	-0.0612	-0.15	-0.551
10000 kPa, x2 = 0.785	-0.0746	-0.173	–
10000 kPa, x2 = 0.801	–	–	-0.585
10000 kPa, x2 = 0.818	-0.0903	–	-0.604
10000 kPa, x2 = 0.875	-0.105	-0.198	-0.627
10000 kPa, x2 = 0.923	-0.105	-0.199	-0.612
10000 kPa, x2 = 0.94	-0.0985	–	–
10000 kPa, x2 = 0.964	-0.0803	-0.146	–
10000 kPa, x2 = 0.972	–	–	-0.41
10000 kPa, x2 = 0.983	-0.0495	–	–
10000 kPa, x2 = 0.986	–	-0.0834	-0.243

From the NIST ThermoML archive (doi:10.1016/j.fluid.2006.05.027)
